In the oligonucleotide strings, read from the 5' end, every base follows the letter of its sugar. An asterisk marks phosphorothioate; unmarked linkages are phosphodiester. Other units and linkages are bracketed, terminal groups are in braces. A string of capitals states the bases alone. [Ab] = 3'-terminal abasic nucleotide; e = 2'-O-(2-methoxyethyl) (MOE); d = 2'-deoxy (DNA); m = 2'-O-methyl; r = 2'-OH (RNA); {P} = phosphate; f = 2'-fluoro
Tested on: PCSK9 mRNA
Experiment: In vitro screening of modified dsRNAs targeted to PCSK9 (Table 2b; cell type not given)
Assay type: cell-based
Settings: 30 nM siRNA
How it was run: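 Activity is reported as percent PCSK9 transcript remaining versus an unrelated control duplex, from eight datapoints per siRNA. Knockdown was read by Quantigene branched-DNA assay with GAPDH normalization 24 h after lipofectamine 2000 transfection of 30 nM siRNA.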

| Substance | Remaining mRNA in % of controls at siRNA conc. of 30 nM [%] |
| --- | --- |
| AD-12045: modified dsRNA, SEQ ID NO:1325/1326 (chain 1 rGrCrCrUrGrGrArGrUrUrUrArUrUrCrGrGrArAdT*dT; chain 2 rUrUrCmCrGrArArUrArArArCrUrCrCrArGrGrCdT*dT) | 8 |
| AD-12397: modified dsRNA, SEQ ID NO:1489/1490 (chain 1 fGmCfCmUfGmGfAmGfUmUfUmAfUmUfCmGfGmAfA; chain 2 {P}-fUfUfCfCrGrArAfUrArArAfCfUfCfCrArGrGfC*fC*fU) | 20 |
| AD-12385: modified dsRNA, SEQ ID NO:1465/1466 (chain 1 GCCUGGNAGUUUAUUCGGAATT; chain 2 {P}-fUfUfCfCrGrArAfUrArArAfCfUfCfCrArGrGfCdT*dT; chain 1: chemistry not given here; further chemistry not fully specified) | 8 |
| AD-12058: modified dsRNA, SEQ ID NO:1351/1352 (chain 1 rGmCrCmUrGmGrAmGrUmUrUmArUmUrCmGrGmArA; chain 2 rUrUrCrCrGrArAmUrArArArCrUrCmCrArGrGrCdT*dT) | 9 |
| AD-12040: modified dsRNA, SEQ ID NO:1315/1316 (chain 1 rGmCmCmUrGrGrArGmUmUmUrAmUmUmCrGrGrArAdT*dT; chain 2 rUrUmCrCrGrArArUrArArArCrUrCrCrArGrGrCdT*dT) | 10 |
| AD-12387: modified dsRNA, SEQ ID NO:1469/1470 (chain 1 rGfCfCfUrGrGrArGrGfUfUfUrAfUfUfCrGrGrArA; chain 2 fUfUfCfCrGrArAfUrArArAfCfUfCfCrArGrGfC*fC*fU) | 13 |
| AD-12391: modified dsRNA, SEQ ID NO:1477/1478 (chain 1 rGfCfCfUrGrGrArGrGfUfUfUrAfUfUfCrGrGrArA; chain 2 rUrUrCrCrGmAmArUrAmAmArCrUrCrCrAmGmGmC) | 21 |
| AD-12339: modified dsRNA, SEQ ID NO:1377/1378 (chain 1 rGmCrCmUrGmGrAmGrUmUrUmArUmUrCmGrGmArA; chain 2 {P}-mUfUmCfCmGfAmAfUmAfAmAfCmUfCmCfAmGfGmC) | 14 |
| AD-12357: modified dsRNA, SEQ ID NO:1411/1412 (chain 1 GCCUGGAGUUUAUUCGGAA; chain 2 rUrUrCrCrGmAmArUrAmAmArCrUrCrCrAmGmGmC; chain 1: sugars from the 5' end rererererererererer, all phosphodiester, methylation of C and T or U not given here) | 56 |
| AD-12402: modified dsRNA, SEQ ID NO:1499/1500 (chain 1 rGmCmCmUrGrGrArGmUmUmUrAmUmUmCrGrGrArA; chain 2 {P}-fUfUfCfCrGrArAfUrArArAfCfUfCfCrArGrGfC*fC*fU) | 14 |
| AD-12063: modified dsRNA, SEQ ID NO:1361/1362 (chain 1 rGmCrCmUrGmGrAmGrUmUrUmArUmUrCmGrGmArA; chain 2 rUrUrCrCrGmAmArUrAmAmArCrUrCrCrAmGmGmC*mC*mU) | 19 |
| AD-12043: modified dsRNA, SEQ ID NO:1321/1322 (chain 1 rGrCrCrUrGrGrArGrUrUrUrArUrUrCrGrGrArAdT*dT; chain 2 rUmUrCrCrGrArArUrArArArCrUrCrCrArGrGrCdT*dT) | 13 |
| AD-12048: modified dsRNA, SEQ ID NO:1331/1332 (chain 1 rGmCmCmUrGrGrArGmUmUmUrAmUmUmCrGrGrArArArA; chain 2 rUrUrUrUrCrCrGrArArUrArArArCrUrCrCrArGrGrC*mC*mU) | 43 |
| AD-12360: modified dsRNA, SEQ ID NO:1417/1418 (chain 1 GCCUGGAGUUUAUUCGGAA; chain 2 rUrUrCrCrGrArArUrArArArCrUrCrCrArGrGrC*mC*mU; chain 1: sugars from the 5' end rererererererererer, all phosphodiester, methylation of C and T or U not given here) | 15 |
| AD-12378: modified dsRNA, SEQ ID NO:1451/1452 (chain 1 rGfCfCfUrGrGrArGfUfUfUrAfUfUfCrGrGrArAdT*dT; chain 2 rUrUrCrCrGmAmArUrAmAmArCrUrCrCrAmGmGmC*mC*mU) | 6 |
| AD-12377: modified dsRNA, SEQ ID NO:1449/1450 (chain 1 rGfCfCfUrGrGrArGfUfUfUrAfUfUfCrGrGrArAdT*dT; chain 2 mUrUmCrCrGrArAmUrArArArCrUmCmCrArGrGrCdT*dT) | 88 |
| AD-12383: modified dsRNA, SEQ ID NO:1461/1462 (chain 1 rGrCrCrUrGrGrArGrUrUrUrArUrUrCrGrGrArAdT*dT; chain 2 {P}-fUfUfCfCrGrArAfUrArArAfCfUfCfCrArGrGfCdT*dT) | 7 |

| Substance | Remaining mRNA in % of controls at siRNA conc. of 30 nM [%] |
| --- | --- |
| AD-12062: modified dsRNA, SEQ ID NO:1359/1360 (chain 1 rGmCrCmUrGmGrAmGrUmUrUmArUmUrCmGrGmArAdTdT[Ab]; chain 2 rUrUrCrCrGmAmArUrAmAmArCrUrCrCrAmGmGmCdTdT[Ab]) | 10 |
| AD-12390: modified dsRNA, SEQ ID NO:1475/1476 (chain 1 rGfCfCfUrGrGrArGrGfUfUfUrAfUfUfCrGrGrArA; chain 2 rUrUrCrCrGrArArUrArArArCrUrCrCrArGrGrC*mC*mU) | 17 |
| AD-12345: modified dsRNA, SEQ ID NO:1389/1390 (chain 1 fGmCfCmUfGmGfAmGfUmUfUmAfUmUfCmGfGmAfAdT*dT; chain 2 rUrUrCrCrGrArArUrArArArCrUrCrCrArGrGrC*mC*mU) | 12 |
| AD-12057: modified dsRNA, SEQ ID NO:1349/1350 (chain 1 rGmCrCmUrGmGrAmGrUmUrUmArUmUrCmGrGmArA; chain 2 rUrUrCrCrGrArArUrArArArCrUrCrCrArGrGrCdT*dT) | 8 |
| AD-12064: modified dsRNA, SEQ ID NO:1363/1364 (chain 1 GCCUGGNAGUUUAUUCGGAATT; chain 2 rUrUrCrCrGrArAmUrArArArCrUrCmCrArGrGrCdT*dT; chain 1: chemistry not given here; sense strand contains an undefined nucleotide n) | 15 |
| AD-12375: modified dsRNA, SEQ ID NO:1447/1448 (chain 1 rGfCfCfUrGrGrArGfUfUfUrAfUfUfCrGrGrArAdT*dT; chain 2 rUrUrCrCrGrArArUrArArArCrUrCrCrArGrGrCdT*dT) | 16 |
| AD-12054: modified dsRNA, SEQ ID NO:1343/1344 (chain 1 rGrCrCrUrGrGrArGrUrUrUrArUrUrCrGrGrArAdT*dT; chain 2 rUrUrCrCrGrArArUrArArArCrUrCrCrArGrGrC*mC*mU) | 8 |
| AD-12372: modified dsRNA, SEQ ID NO:1441/1442 (chain 1 GCCUGGAGUUUAUUCGGAATT; chain 2 {P}-mUfUmCfCmGfAmAfUmAfAmAfCmUfCmCfAmGfGmC*fC*mU; chain 1: DNA at T, 2'-MOE at CU, RNA at AG, linkages o19 s1 (s phosphorothioate, o phosphodiester), methylation of C and T or U not given here) | 60 |
| AD-12068: modified dsRNA, SEQ ID NO:1371/1372 (chain 1 rGmCrCmUrGmGrAmGrUmUrUmArUmUrCmGrGmArAdTdT[Ab]; chain 2 rUrUrCrCrGrArArUrArArArCrUrCrCrArGrGrCdTdT[Ab]) | 18 |
| AD-12051: modified dsRNA, SEQ ID NO:1337/1338 (chain 1 rGmCmCmUrGrGrArGmUmUmUrAmUmUmCrGrGrArArAdTdT[Ab]; chain 2 rUrUrUrCrCrGrArAmUrArArArCrUrCrCrArGrGrCdTdT[Ab]) | 31 |
| AD-12340: modified dsRNA, SEQ ID NO:1379/1380 (chain 1 rGmCmCmUrGrGrArGmUmUmUrAmUmUmCrGrGrArA; chain 2 {P}-mUfUmCfCmGfAmAfUmAfAmAfCmUfCmCfAmGfGmC) | 19 |
| AD-12059: modified dsRNA, SEQ ID NO:1353/1354 (chain 1 rGmCrCmUrGmGrAmGrUmUrUmArUmUrCmGrGmArA; chain 2 mUrUmCrCrGrArAmUrArArArCrUmCmCrArGrGrCdT*dT) | 23 |
| AD-12374: modified dsRNA, SEQ ID NO:1445/1446 (chain 1 rGfCfCfUrGrGrArGfUfUfUrAfUfUfCrGrGrArAdT*dT; chain 2 fUfUfCfCrGrArAfUrArArAfCfUfCfCrArGrGfCdT*dT) | 9 |
| AD-12050: modified dsRNA, SEQ ID NO:1335/1336 (chain 1 rGmCmCmUrGrGrArGmUmUmUrAmUmUmCrGrGrArAdTdT[Ab]; chain 2 rUrUrCrCrGrArArUrArArArCrUrCrCrArGrGrCdTdT[Ab]) | 16 |
| AD-12393: modified dsRNA, SEQ ID NO:1481/1482 (chain 1 rGfCfCfUrGrGrArGrGfUfUfUrAfUfUfCrGrGrArA; chain 2 rUrUrCrCrGrArAmUrArArArCrUrCmCrArGrGrCdT*dT) | 17 |
| AD-12042: modified dsRNA, SEQ ID NO:1319/1320 (chain 1 rGrCrCrUrGrGrArGrUrUrUrArUrUrCrGrGrArAdT*dT; chain 2 mUrUrCrCrGrArArUrArArArCrUrCrCrArGrGrCdT*dT) | 12 |

Reference: US20120016009A1, “Optimized Methods For Delivery Of DSRNA Targeting The PCSK9 Gene” (priority 2008, published 2012)
